# Test results: ChEMBL document CHEMBL5726496, “Piperidine derivatives as HDAC1/2 inhibitors” (2017)
# Molecular target: Histone deacetylase 1 (Homo sapiens, UniProt Q13547)
# Test: Enzyme Assay: Compounds for testing were diluted in DMSO to 50 fold the final concentration and a ten point three fold dilution series was made. The compounds were diluted in assay buffer (50 mM HEPES, pH 7.4, 100 mM KCl, 0.001% Tween-20, 0.05% BSA, 20 μM tris(2-carboxyethyl)phosphine) to 6 fold their final concentration. The HDAC enzymes (purchased from BPS Biosciences) were diluted to 1.5 fold their final concentration in assay buffer and pre-incubated with the compounds for 24 hours prior to addition of the substrate.
# Chain of Histone deacetylase 1 (Q13547 whole entry): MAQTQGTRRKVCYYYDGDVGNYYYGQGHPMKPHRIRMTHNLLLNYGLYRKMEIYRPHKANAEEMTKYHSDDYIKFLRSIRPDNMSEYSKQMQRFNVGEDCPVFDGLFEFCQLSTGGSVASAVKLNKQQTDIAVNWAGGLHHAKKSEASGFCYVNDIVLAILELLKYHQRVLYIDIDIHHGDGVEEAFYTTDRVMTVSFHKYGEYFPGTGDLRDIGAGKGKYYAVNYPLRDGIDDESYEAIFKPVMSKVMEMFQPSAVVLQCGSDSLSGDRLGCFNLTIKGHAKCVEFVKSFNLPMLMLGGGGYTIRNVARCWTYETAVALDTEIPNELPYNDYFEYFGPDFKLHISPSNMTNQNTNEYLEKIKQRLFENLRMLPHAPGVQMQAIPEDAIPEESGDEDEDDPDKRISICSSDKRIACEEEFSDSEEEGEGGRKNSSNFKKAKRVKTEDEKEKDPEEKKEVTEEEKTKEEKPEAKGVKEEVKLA
row,SMILES,IC50
1,CN(c1ncc(C(=O)Nc2cc(-c3ccccc3)ccc2N)cn1)C1CCN(C(=O)Cc2c[nH]c3ccccc23)CC1,0.048 µM
2,Nc1ccc(-c2ccccc2)cc1NC(=O)c1cnc(NC2CCN(C(=O)Cc3c[nH]c4ccccc34)CC2)nc1,0.022 µM
3,CC1(Nc2ncc(C(=O)Nc3cc(-c4ccccc4)ccc3N)cn2)CCNCC1,0.014 µM
